{"source": "patent US9173402B2", "about": "“Fungicidal alkyl-substituted 2[2-chloro-4-(4-chioro-phenoxy)-phenyl]-1[1,2,4]triazol-1-yl-ethanol compounds” (BASF SE, priority 2011, dated 2015)", "key": {"Septoria tritici [1]": {"test_system": "Septoria tritici", "test": "Preventative control of leaf blotch on wheat (comparative green house test)", "assay_type": "in vivo", "details": "% diseased leaf area after 4 weeks, untreated control 90", "method": "(§1) The spray solutions were prepared in several steps: The stock solution were prepared: a mixture of acetone and/or dimethylsulfoxide and the wetting agent/emulsifier Wettol, which is based on ethoxylated alkylphenoles, in a relation (volume) solvent-emulsifier of 99 to 1 was added to 25 mg of the compound to give a total of 5 ml. Water was then added to total volume of 100 ml. This stock solution was diluted with the described solvent-emulsifier-water mixture to the given concentration. Leaves of pot-grown wheat seedling were sprayed to run-off with an aqueous suspension of the active compound or their mixture, prepared as described. The plants were allowed to air-dry. At the following day the plants were inoculated with an aqueous spore suspension of Septoria tritici. […] After 4 days the plants were transferred to a chamber with 18-22° C. and a relative humidity close to 70%. After 4 weeks the extent of fungal attack on the leaves was visually assessed as % diseased leaf area."}, "Pyricularia oryzae [2]": {"test_system": "Pyricularia oryzae", "assay_type": "cell-based", "details": "7 days after inoculation"}, "Septoria tritici [3]": {"test_system": "Septoria tritici", "test": "Curative control of leaf blotch on wheat (comparative green house test)", "assay_type": "in vivo", "details": "wheat sprayed seven days after inoculation, % diseased leaf area after 4 weeks, untreated control 90", "method": "as §1, with “were” for “were sprayed to run-off with an aqueous suspension of the active compound or their mixture, prepared as described. The plants were allowed to air-dry. At the following day the plants were”, “70%. Seven days after inoculation the plants were sprayed to run-off with an aqueous suspension of the active compound or their mixture, prepared as described. Then the plants were transferred back to the chamber with 18-22° C. and a relative humidity close to 70%.” for “70%.”"}, "Pyricularia oryzae [4]": {"test_system": "Pyricularia oryzae", "assay_type": "in vivo", "details": "rice sprayed seven days before inoculation, % diseased leaf area after 6 days, untreated control 90"}, "Fusarium culmorum": {"test_system": "Fusarium culmorum", "test": "Control of culm rot on pearl millet (comparative green house test)", "assay_type": "in vivo", "details": "pearl millet sprayed one day before inoculation, % diseased leaf area after 6 days", "method": "The spray solutions were prepared in several steps:\nThe stock solution were prepared: a mixture of acetone and/or dimethylsulfoxide and the wetting agent/emulsifier Wettol, which is based on ethoxylated alkylphenoles, in a relation (volume) solvent-emulsifier of 99 to 1 was added to 25 mg of the compound to give a total of 5 ml.\nWater was then added to total volume of 100 ml.\nThis stock solution was diluted with the described solvent-emulsifier-water mixture to the given concentration.\nPot-grown pearl millet seedlings with 2-3 leaves were sprayed to run-off with an aqueous suspension of the compound prepared as described. The plants were allowed to air-dry. At the following day the plants were inoculated with an spore suspension of Fusarium culmorum in a 2% aqueous malt solution. Then the trial plants were immediately transferred to a humid chamber. After 6 days at 23-25° C. and a relative humidity close to 100% the extent of fungal attack on the leaves was visually assessed as % diseased leaf area."}, "Pyrenophora teres": {"test_system": "Pyrenophora teres", "test": "Activity against net blotch on barley in the microtiter test", "assay_type": "cell-based", "details": "comparative microtest Example 1, 7 days after inoculation", "method": "The stock solutions were mixed according to the ratio, pipetted onto a micro titer plate (MTP) and diluted with water to the stated concentrations. A spore suspension of Pyrenophora teres in an aqueous biomalt or yeast-bactopeptone-glycerine solution was then added. The plates were placed in a water vapor-saturated chamber at a temperature of 18° C. Using an absorption photometer, the MTPs were measured at 405 nm 7 days after the inoculation."}, "Alternaria solani": {"test_system": "Alternaria solani", "test": "Activity against early blight, microtiter test", "assay_type": "cell-based", "details": "7 days after inoculation; for Growth (%) at 0.000125 pm: comparative microtest Example 5; for Growth (%) at 0.5 pm: comparative microtest Example 2"}, "Botrytis cinerea": {"test_system": "Botrytis cinerea", "test": "Activity against grey mold in the microtiterplate test", "assay_type": "cell-based", "details": "7 days after inoculation; for Growth (%) at 0.5 pm: comparative microtest Example 3"}, "Leptosphaeria nodorum": {"test_system": "Leptosphaeria nodorum", "test": "Activity against wheat leaf spots, microtiter test", "assay_type": "cell-based", "details": "32 ppm; 405 nm, 7 days after inoculation; compound-free control = 100%"}, "Septoria tritici [5]": {"test_system": "Septoria tritici", "test": "Activity against leaf blotch on wheat, microtiter test", "assay_type": "cell-based", "details": "32 ppm; 405 nm, 7 days after inoculation; compound-free control = 100%"}, "Phytophthora infestans": {"test_system": "Phytophthora infestans", "assay_type": "cell-based", "details": "32 ppm; 405 nm, 7 days after inoculation; compound-free control = 100%"}, "[6]": {"details": "comparative microtest Example 7"}, "[7]": {"details": "comparative microtest Example 4"}, "[8]": {"details": "32 ppm, 405 nm, compound-free control = 100%"}}, "note": "Several values for one entry are separate records, joined by “and”; a condition that tells them apart may be missing. Equal entries are not always repeated. Where two headings read alike, the source gives them in different places.", "data": [{"smiles": "CC(F)C(O)(Cn1cncn1)c1ccc(Oc2ccc(Cl)cc2)cc1Cl", "note": "(stereo not shown)", "values": [{"measurement": "Disease (%) at 150 ppm", "setting": "Septoria tritici [1]", "result": 50, "unit": "%"}]}, {"smiles": "CCC(O)(Cn1cncn1)c1ccc(Oc2ccc(Cl)cc2)cc1Cl", "note": "(stereo not shown) [Compound I-1, 2-[2-chloro-4-(4-chlorophenoxy)phenyl]-1-(1,2,4-triazol-1-yl)butan-2-ol]", "values": [{"measurement": "Growth (%) at 0.5 pm", "setting": "Pyricularia oryzae [2]; [6]", "result": 15, "unit": "%"}, {"measurement": "Disease (%) at 16 ppm", "setting": "Septoria tritici [3]", "result": 40, "unit": "%"}, {"measurement": "Disease (%) at 250 ppm", "setting": "Pyricularia oryzae [4]", "result": 20, "unit": "%"}, {"measurement": "Disease (%) at 16 ppm", "setting": "Fusarium culmorum; untreated control 90, listed as Table 1, 1", "result": "0% and 1%"}, {"measurement": "Disease (%) at 150 ppm", "setting": "Septoria tritici [1]", "result": 10, "unit": "%"}, {"measurement": "Growth (%) at 8 pm", "setting": "Pyrenophora teres", "result": 13, "unit": "%"}, {"measurement": "melting point", "result": "140 to 142", "unit": "°C"}, {"measurement": "Growth (%) at 0.000125 pm", "setting": "Alternaria solani", "result": 1, "unit": "%"}]}, {"smiles": "CCCC(O)(Cn1cncn1)c1ccc(Oc2ccc(Cl)cc2)cc1Cl", "note": "(stereo not shown) [Compound I-2, 2-[2-chloro-4-(4-chloro-phenoxy)-phenyl]-1-[1,2,4]triazol-1-yl-pentan-2-ol]", "values": [{"measurement": "Growth (%) at 0.5 pm", "setting": "Pyricularia oryzae [2]; [7]", "result": 4, "unit": "%"}, {"measurement": "Growth (%) at 8 pm", "setting": "Pyrenophora teres", "result": 57, "unit": "%"}, {"measurement": "melting point", "result": "132 to 135", "unit": "°C"}]}, {"smiles": "CC#CC(O)(Cn1cncn1)c1ccc(Oc2ccc(Cl)cc2)cc1Cl", "note": "(stereo not shown) [Compound I-8, 2-[2-chloro-4-(4-chlorophenoxy)phenyl]-1-(1,2,4-triazol-1-yl)pent-3-yn-2-ol]", "values": [{"measurement": "melting point", "result": 139, "unit": "°C"}]}, {"smiles": "OC(Cn1cncn1)(c1ccc(Oc2ccc(Cl)cc2)cc1Cl)C1CC1", "note": "(stereo not shown) [Compound I-9]", "values": [{"measurement": "Disease (%) at 16 ppm", "setting": "Fusarium culmorum; untreated control 90", "result": 5, "unit": "%"}, {"measurement": "melting point", "result": 110, "unit": "°C"}, {"measurement": "Growth (%) at 0.000125 pm", "setting": "Alternaria solani", "result": 1, "unit": "%"}]}, {"smiles": "C=CC(O)(Cn1cncn1)c1ccc(Oc2ccc(Cl)cc2)cc1Cl", "note": "(stereo not shown) [Compound I-10]", "values": [{"measurement": "Growth (%) at 0.5 pm", "setting": "Botrytis cinerea", "result": 0, "unit": "%"}, {"measurement": "melting point", "result": 119, "unit": "°C"}, {"measurement": "Growth (%) at 0.5 pm", "setting": "Alternaria solani", "result": 0, "unit": "%"}]}, {"smiles": "C#CCC(O)(Cn1cncn1)c1ccc(Oc2ccc(Cl)cc2)cc1Cl", "note": "(stereo not shown) [Compound I-11, 2-[2-chloro-4-(4-chloro-phenoxy)-phenyl]-1-[1,2,4]triazol-1-yl-pent-4-yn-2-ol]", "values": [{"measurement": "relative growth of the pathogen", "setting": "Pyricularia oryzae [2]; [8]", "result": 0, "unit": "%"}, {"measurement": "relative growth of the pathogen", "setting": "Leptosphaeria nodorum", "result": 2, "unit": "%"}, {"measurement": "relative growth of the pathogen", "setting": "Septoria tritici [5]", "result": 9, "unit": "%"}, {"measurement": "relative growth of the pathogen", "setting": "Botrytis cinerea; [8]", "result": 0, "unit": "%"}, {"measurement": "relative growth of the pathogen", "setting": "Phytophthora infestans", "result": 12, "unit": "%"}, {"measurement": "relative growth of the pathogen", "setting": "Alternaria solani; [8]", "result": 2, "unit": "%"}]}, {"smiles": "CC(O)(Cn1cncn1)c1ccc(Oc2ccc(Cl)cc2)cc1Cl", "note": "(stereo not shown) [drawing 6]", "values": [{"measurement": "Growth (%) at 8 pm", "setting": "Pyrenophora teres", "result": 62, "unit": "%"}]}, {"smiles": "CCC(Cn1cncn1)(OC)c1ccc(Oc2ccc(Cl)cc2)cc1Cl", "note": "(stereo not shown) [drawing 7]", "values": [{"measurement": "Growth (%) at 8 pm", "setting": "Pyrenophora teres", "result": 39, "unit": "%"}]}, {"smiles": "CCCC(Cn1cncn1)(OC)c1ccc(Oc2ccc(Cl)cc2)cc1Cl", "note": "(stereo not shown) [drawing 9]", "values": [{"measurement": "Growth (%) at 8 pm", "setting": "Pyrenophora teres", "result": 77, "unit": "%"}]}, {"smiles": "OC(/C=C/c1ccccc1)(Cn1cncn1)c1ccc(Oc2ccc(Cl)cc2)cc1Cl", "note": "(stereo not shown) [drawing 11, reference compound]", "values": [{"measurement": "Growth (%) at 0.5 pm", "setting": "Alternaria solani", "result": 91, "unit": "%"}]}, {"smiles": "OC(/C=C/c1ccccc1)(Cn1cncn1)c1ccc(Oc2ccc(Cl)cc2)cc1Cl", "note": "(stereo not shown) [drawing 13, reference compound]", "values": [{"measurement": "Growth (%) at 0.5 pm", "setting": "Botrytis cinerea", "result": 77, "unit": "%"}]}, {"smiles": "CCCC(Cn1cncn1)(OC)c1ccc(Oc2ccc(Cl)cc2)cc1Cl", "note": "(stereo not shown) [drawing 15, reference compound]", "values": [{"measurement": "Growth (%) at 0.5 pm", "setting": "Pyricularia oryzae [2]; [7]", "result": 30, "unit": "%"}]}, {"smiles": "CC(O)(Cn1cncn1)c1ccc(Oc2ccc(Cl)cc2)cc1Cl", "note": "(stereo not shown) [drawing 17, reference compound]", "values": [{"measurement": "Growth (%) at 0.000125 pm", "setting": "Alternaria solani", "result": 45, "unit": "%"}]}, {"smiles": "CCC(Cn1cncn1)(OC)c1ccc(Oc2ccc(Cl)cc2)cc1Cl", "note": "(stereo not shown) [drawing 18, reference compound]", "values": [{"measurement": "Growth (%) at 0.000125 pm", "setting": "Alternaria solani", "result": 83, "unit": "%"}]}, {"smiles": "CC(O)(Cn1cncn1)c1ccc(Oc2ccc(Cl)cc2)cc1Cl", "note": "(stereo not shown) [drawing 21, reference compound]", "values": [{"measurement": "Growth (%) at 0.5 pm", "setting": "Pyricularia oryzae [2]; [6]", "result": 82, "unit": "%"}]}, {"smiles": "CCC(Cn1cncn1)(OC)c1ccc(Oc2ccc(Cl)cc2)cc1Cl", "note": "(stereo not shown) [drawing 22, reference compound]", "values": [{"measurement": "Growth (%) at 0.5 pm", "setting": "Pyricularia oryzae [2]; [6]", "result": 47, "unit": "%"}]}, {"smiles": "OC(Cn1cncn1)c1ccc(Oc2ccc(Cl)cc2)cc1Cl", "note": "(stereo not shown) [drawing 24]", "values": [{"measurement": "Disease (%) at 150 ppm", "setting": "Septoria tritici [1]", "result": 60, "unit": "%"}]}, {"smiles": "OC(Cn1cncn1)c1ccc(Oc2ccc(Cl)cc2)cc1Cl", "note": "(stereo not shown) [drawing 27, reference compound]", "values": [{"measurement": "Disease (%) at 250 ppm", "setting": "Pyricularia oryzae [4]", "result": 60, "unit": "%"}]}, {"smiles": "CC(O)(Cn1cncn1)c1ccc(Oc2ccc(Cl)cc2)cc1Cl", "note": "(stereo not shown) [drawing 29, reference compound]", "values": [{"measurement": "Disease (%) at 16 ppm", "setting": "Fusarium culmorum; untreated control 90", "result": 25, "unit": "%"}]}, {"smiles": "OC(Cn1cncn1)c1ccc(Oc2ccc(Cl)cc2)cc1Cl", "note": "(stereo not shown) [drawing 32, reference compound]", "values": [{"measurement": "Disease (%) at 16 ppm", "setting": "Fusarium culmorum; untreated control 90", "result": 30, "unit": "%"}]}, {"smiles": "CCC(Cn1cncn1)(OC)c1ccc(Oc2ccc(Cl)cc2)cc1Cl", "note": "(stereo not shown) [drawing 34, reference compound]", "values": [{"measurement": "Disease (%) at 16 ppm", "setting": "Septoria tritici [3]", "result": 70, "unit": "%"}]}]}
